Measurements from patent US10350271B2, “Lipidated peptides for lowering blood glucose” (USTAV ORGANICKE CHEMIE A BIOCHEMIE AKADEMIE VED CR, V.V.I., priority 2014, dated 2019).
Numbered stars: 1 amine (or outer) side, 2 acyl side, 3 side chain; on linkers, the order of the positions; unused ones are H or OH. Side chains are listed from the residue outwards. Peptide text beside a SMILES is read from it. * marks the point of attachment. TTDA(Palmitoyl) = CCCCCCCCCCCCCCCC(=O)NCCCOCCOCCOCCCN*; γGlu = O=C(O)[C@H](CCC(=O)[*:2])N[*:1]; Palmitoyl = CCCCCCCCCCCCCCCC(=O)*; Suc = O=C(CCC(=O)[*:2])[*:1]; GABA = NCCCC(=O)O

Tests used:
[1] = tested on: C57BL/6 mice; experiment: Food intake in fasted mice after SC injection; type: in vivo; conditions: 5 mg/kg SC, 45 min after injection
Outline: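 Saline, PrRP or a lipidated analog was injected SC (1-10 mg/kg) after a 17 h fast with free water, animals housed singly.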

[2] = tested on: Wistar rats; experiment: Food intake in fasted rats after SC injection; type: in vivo; conditions: overnight fasted rats, compared to controls given vehicle
Procedure: NMRI mice, C57BL/6 mice, and Wistar rats (AnLab, Prague, Czech Republic) were housed in a temperature of 23° C. and a daily cycle of 12 h light and dark (light from 6:00). They were given ad libitum water and a standard chow diet that contained 25, 9 and 66% of calories of protein, fat and carbohydrate respectively. Energy content of the feed was 3.4 kcal/g (St-1, Mlýn Kocanda, Czech Republic). Db/db mice and their controls (C57BL/6 background) were obtained from Taconic (Denmark), housed under the same conditions as described above, and fed by Altromin (Taconic, Denmark). ZDF-Lepr^fa/Crl, diabetic fa/fa male rats were obtained from Charles River (France), housed under same conditions as described above, and fed with a Purina 5008 diet (IPS Product Supplies Limited, UK). All experiments followed the ethical guidelines for animal experiments and the law of the Czech Republic Nr. 246/1992.
In experiments with C57BL/6 mice or Wistar rats, food intake was measured with overnight fasted animals in individual cages. Food was withdrawn 17 hours prior to injection of lipidated analog of prolactin releasing peptide (PrRP); free access to water was maintained. The administration of either saline, PrRP, or lipidated analogs was performed by SC injection at doses of 1-10 mg/kg (which corresponded to a volume of 0.2 ml/mouse and 0.1 ml/100 g weight of rat). Fifteen minutes after the lipidated analog of prolactin releasing peptide (PrRP) administration, the mice were given pre-weighed food. The food was then weighed every 30 minutes for 5-10 hours. The administration of each dose was performed at least twice, and each group of mice consisted of at least 6 mice.

[3] = target: T1, human PrRP receptor GPR10 (Homo sapiens, UniProt P49683); experiment: Competitive binding in CHO cells transfected with human GPR10 (human 125I-PrRP31); conditions: for Ki: CHO cells, human 125I-PrRP31, read-out: Ki, GPR10 human receptor transfected in CHO cells; for % of PrRP31, GPR10 human receptor transfected in CHO cells: affinity relative to PrRP31
T1 construct: host or cells: CHO cells
T1 sequence (P49683 1-370): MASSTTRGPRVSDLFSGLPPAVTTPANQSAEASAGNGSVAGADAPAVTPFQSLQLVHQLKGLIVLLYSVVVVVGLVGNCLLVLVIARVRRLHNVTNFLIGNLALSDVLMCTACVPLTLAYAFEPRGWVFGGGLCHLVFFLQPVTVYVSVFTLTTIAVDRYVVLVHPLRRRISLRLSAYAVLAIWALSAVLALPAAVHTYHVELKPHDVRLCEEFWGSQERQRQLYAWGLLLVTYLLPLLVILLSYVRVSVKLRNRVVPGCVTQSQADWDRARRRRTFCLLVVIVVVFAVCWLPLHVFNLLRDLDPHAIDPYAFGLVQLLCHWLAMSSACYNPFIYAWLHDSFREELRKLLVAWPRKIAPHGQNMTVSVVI
Outline: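 Values from one-site nonlinear regression of displacement curves: analogs (final 10^-11 to 10^-4 mol·l^-1) competed with 125I-PrRP31 (final 5×10^-11 mol·l^-1) on adherent human GPR10 CHO cells. Binding ran 1 h at room temperature, pH 7.4 buffer with NaCl, MgCl2, CaCl2, glucose, BSA; cell-bound radioactivity counted after NaOH lysis.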

[4] = target: T2, rat PrRP receptor (Rattus norvegicus, UniProt Q64121); experiment: Competitive binding in RC-4B/C rat pituitary cells (125I-rat PrRP31); conditions: for Ki: RC-4B/C cells, displacement of 125I-rat PrRP31, read-out: Ki, RC-4B/C rat pituitary cells ^25I-rat PrRP31; for % of PrRP31, RC-4B/C rat pituitary cells: affinity relative to PrRP31
T2 construct: host or cells: RC-4B/C rat pituitary cell line
T2 sequence (Q64121 1-370): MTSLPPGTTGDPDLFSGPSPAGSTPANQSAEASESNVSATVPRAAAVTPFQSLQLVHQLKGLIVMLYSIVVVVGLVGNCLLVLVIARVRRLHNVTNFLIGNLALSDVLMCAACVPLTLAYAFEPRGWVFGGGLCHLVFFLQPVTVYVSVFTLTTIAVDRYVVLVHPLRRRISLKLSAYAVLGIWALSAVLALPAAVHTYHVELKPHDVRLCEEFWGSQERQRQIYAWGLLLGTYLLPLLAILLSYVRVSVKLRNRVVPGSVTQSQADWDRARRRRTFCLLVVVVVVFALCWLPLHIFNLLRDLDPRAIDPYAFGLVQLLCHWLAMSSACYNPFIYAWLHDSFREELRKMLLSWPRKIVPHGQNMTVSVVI
Outline: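 Displacement of rat 125I-PrRP31 ([…]) by test analogs, 10^−11–10^−4 mol·l^−1, on whole RC-4B/C cells, 60 min RT. Bound counts measured by γ-counter in duplicate, ≥3 repeats, analyzed by nonlinear one-site binding regression.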

SMILES	Food intake in mice % of saline-treated group [1] [%]	Food intake in rats [2]	Ki [3] [nM]	% of PrRP31, GPR10 human receptor transfected in CHO cells [3] [%]	Ki [4] [nM]	% of PrRP31, RC-4B/C rat pituitary cells [4] [%]
CCCCCCCCCCCCCCCC(=O)NCCCC[C@H](NC(=O)[C@@H](NC(=O)[C@H](CCC(=O)O)NC(=O)[C@H](CCSC)NC(=O)[C@H](CO)NC(=O)[C@H](Cc1c[nH]cn1)NC(=O)[C@H](CCCNC(=N)N)NC(=O)[C@H](Cc1c[nH]cn1)NC(=O)[C@@H](NC(=O)[C@H](CCCNC(=N)N)NC(=O)[C@@H](N)CO)[C@@H](C)O)[C@@H](C)CC)C(=O)N[C@H](C(=O)N1CCC[C@H]1C(=O)N[C@@H](CC(=O)O)C(=O)N[C@H](C(=O)N[C@@H](CC(N)=O)C(=O)N1CCC[C@H]1C(=O)N[C@@H](C)C(=O)N[C@@H](Cc1c[nH]c2ccccc12)C(=O)N[C@@H](Cc1ccc(O)cc1)C(=O)N[C@@H](C)C(=O)N[C@@H](CO)C(=O)N[C@@H](CCCNC(=N)N)C(=O)NCC(=O)N[C@H](C(=O)N[C@@H](CCCNC(=N)N)C(=O)N1CCC[C@H]1C(=O)N[C@H](C(=O)NCC(=O)N[C@@H](CCCNC(=N)N)C(=O)N[C@@H](Cc1ccccc1)C(N)=O)C(C)C)[C@@H](C)CC)[C@@H](C)CC)[C@@H](C)O [Analog 48] (H-SRTHRHSMEIK(Palmitoyl)TPDINPAWYASRGIRPVGRF-NH2)	13	significantly reduced	6.37 ± 0.78	61	–	–
CCCCCCCCCCCCCCCC(=O)NCCCC(=O)NCCCC[C@H](NC(=O)[C@@H](NC(=O)[C@H](CCC(=O)O)NC(=O)[C@H](CCSC)NC(=O)[C@H](CO)NC(=O)[C@H](Cc1c[nH]cn1)NC(=O)[C@H](CCCNC(=N)N)NC(=O)[C@H](Cc1c[nH]cn1)NC(=O)[C@@H](NC(=O)[C@H](CCCNC(=N)N)NC(=O)[C@@H](N)CO)[C@@H](C)O)[C@@H](C)CC)C(=O)N[C@H](C(=O)N1CCC[C@H]1C(=O)N[C@@H](CC(=O)O)C(=O)N[C@H](C(=O)N[C@@H](CC(N)=O)C(=O)N1CCC[C@H]1C(=O)N[C@@H](C)C(=O)N[C@@H](Cc1c[nH]c2ccccc12)C(=O)N[C@@H](Cc1ccc(O)cc1)C(=O)N[C@@H](C)C(=O)N[C@@H](CO)C(=O)N[C@@H](CCCNC(=N)N)C(=O)NCC(=O)N[C@H](C(=O)N[C@@H](CCCNC(=N)N)C(=O)N1CCC[C@H]1C(=O)N[C@H](C(=O)NCC(=O)N[C@@H](CCCNC(=N)N)C(=O)N[C@@H](Cc1ccccc1)C(N)=O)C(C)C)[C@@H](C)CC)[C@@H](C)CC)[C@@H](C)O [Analog 53] (H-SRTHRHSMEIK([GABA-Palmitoyl])TPDINPAWYASRGIRPVGRF-NH2)	25	significantly reduced	9.19 ± 0.96	42.5	1.26 ± 0.57	190
CCCCCCCCCCCCCCCC(=O)N[C@@H](CCC(=O)N[C@@H](CO)C(=O)N[C@@H](CCCNC(=N)N)C(=O)N[C@H](C(=O)N[C@@H](Cc1c[nH]cn1)C(=O)N[C@@H](CCCNC(=N)N)C(=O)N[C@@H](Cc1c[nH]cn1)C(=O)N[C@@H](CO)C(=O)N[C@@H](CCSC)C(=O)N[C@@H](CCC(=O)O)C(=O)N[C@H](C(=O)N[C@@H](CCCNC(=N)N)C(=O)N[C@H](C(=O)N1CCC[C@H]1C(=O)N[C@@H](CC(=O)O)C(=O)N[C@H](C(=O)N[C@@H](CC(N)=O)C(=O)N1CCC[C@H]1C(=O)N[C@@H](C)C(=O)N[C@@H](Cc1c[nH]c2ccccc12)C(=O)N[C@@H](Cc1ccc(O)cc1)C(=O)N[C@@H](C)C(=O)N[C@@H](CO)C(=O)N[C@@H](CCCNC(=N)N)C(=O)NCC(=O)N[C@H](C(=O)N[C@@H](CCCNC(=N)N)C(=O)N1CCC[C@H]1C(=O)N[C@H](C(=O)NCC(=O)N[C@@H](CCCNC(=N)N)C(=O)N[C@@H](Cc1ccccc1)C(N)=O)C(C)C)[C@@H](C)CC)[C@@H](C)CC)[C@@H](C)O)[C@@H](C)CC)[C@@H](C)O)C(=O)O [Analog 54]	14	significantly reduced	–	57	0.5 ± 0.13	119
CCCCCCCCCCCCCCCC(=O)N[C@@H](CCC(=O)NCCCC[C@H](NC(=O)[C@@H](NC(=O)[C@H](CCC(=O)O)NC(=O)[C@H](CCSC)NC(=O)[C@H](CO)NC(=O)[C@H](Cc1c[nH]cn1)NC(=O)[C@H](CCCNC(=N)N)NC(=O)[C@H](Cc1c[nH]cn1)NC(=O)[C@@H](NC(=O)[C@H](CCC(=O)O)NC(=O)[C@@H](N)CO)[C@@H](C)O)[C@@H](C)CC)C(=O)N[C@H](C(=O)N1CCC[C@H]1C(=O)N[C@@H](CC(=O)O)C(=O)N[C@H](C(=O)N[C@@H](CC(N)=O)C(=O)N1CCC[C@H]1C(=O)N[C@@H](C)C(=O)N[C@@H](Cc1c[nH]c2ccccc12)C(=O)N[C@@H](Cc1ccc(O)cc1)C(=O)N[C@@H](C)C(=O)N[C@@H](CO)C(=O)N[C@@H](CCCNC(=N)N)C(=O)NCC(=O)N[C@H](C(=O)N[C@@H](CCCNC(=N)N)C(=O)N1CCC[C@H]1C(=O)N[C@H](C(=O)NCC(=O)N[C@@H](CCCNC(=N)N)C(=O)N[C@@H](Cc1ccccc1)C(N)=O)C(C)C)[C@@H](C)CC)[C@@H](C)CC)[C@@H](C)O)C(=O)O [Analog 55] (H-SETHRHSMEIK([γGlu-Palmitoyl])TPDINPAWYASRGIRPVGRF-NH2)	12	significantly reduced	4.72 ± 0.35	83	–	236
CCCCCCCCCCCCCCCC(=O)NCCCOCCOCCOCCCNC(=O)CCC(=O)NCCCC[C@H](NC(=O)[C@@H](NC(=O)[C@H](CCC(=O)O)NC(=O)[C@H](CCSC)NC(=O)[C@H](CO)NC(=O)[C@H](Cc1c[nH]cn1)NC(=O)[C@H](CCCNC(=N)N)NC(=O)[C@H](Cc1c[nH]cn1)NC(=O)[C@@H](NC(=O)[C@H](CCCNC(=N)N)NC(=O)[C@@H](N)CO)[C@@H](C)O)[C@@H](C)CC)C(=O)N[C@H](C(=O)N1CCC[C@H]1C(=O)N[C@@H](CC(=O)O)C(=O)N[C@H](C(=O)N[C@@H](CC(N)=O)C(=O)N1CCC[C@H]1C(=O)N[C@@H](C)C(=O)N[C@@H](Cc1c[nH]c2ccccc12)C(=O)N[C@@H](Cc1ccc(O)cc1)C(=O)N[C@@H](C)C(=O)N[C@@H](CO)C(=O)N[C@@H](CCCNC(=N)N)C(=O)NCC(=O)N[C@H](C(=O)N[C@@H](CCCNC(=N)N)C(=O)N1CCC[C@H]1C(=O)N[C@H](C(=O)NCC(=O)N[C@@H](CCCNC(=N)N)C(=O)N[C@@H](Cc1ccccc1)C(N)=O)C(C)C)[C@@H](C)CC)[C@@H](C)CC)[C@@H](C)O [Analog 57] (H-SRTHRHSMEIK([Suc-TTDA(Palmitoyl)])TPDINPAWYASRGIRPVGRF-NH2; N-terminus assumed)	10	significantly reduced	3.79 ± 0.46	103	–	663
